Laboratory results: patent US11872298B2, “Cosmetic use of arthrofactin” (L'OREAL, priority 2016, dated 2024)
*1 amine or outer side, *2 acyl side, *3 side chain or, on linkers, in order; H or OH if unused. Where a SMILES comes first, the peptide text is derived from it. Bridges are numbered along the chain shown (N, C = ends). [ ]: non-standard residue; d: D form. X1 = CC(C)CCCCCCCCC[C@H](CC(=O)[*:1])O[*:2]

Test system: genes associated with moisturization in keratinocytes
Assay: Expression of genes associated with moisturization in keratinocytes cultivated in vitro (quantitative PCR)
Format: cell-based, human
Details: 0.002 mg/L and 0.01 mg/L in water
Protocol: K266 human epidermic keratinocytes were seeded in wells (50,000 cells/well) and cultivated in a Dermalife K medium (Lifeline LL-007) for 3 days at 37° C. and 5% of CO2. At the end of incubation, the culture medium was replaced by a test medium (K Dermalife supplemented with 1.5 mM CaCl2) containing or not containing (control) the mixture of arthrofactins obtained in example 1 in the form of a powder diluted to 0.1% in water or references (retinoic acid at 0.1 μM and 1 μM, or retinol at 10 μM). The cells were then incubated for 24 hours.
In parallel, normal human keratinocytes (NHK, 01.12) were seeded in wells (50,000 cells/well) and cultivated in a COMPLETE KGM medium (KGM BULLETKIT, LONZA, CC-3111) for 3 days at 37° C. and 5% of CO2. […]
The quantification of RNA and quality control were analyzed using LabChip GX (Perkin Elmer). Reverse transcription (RT) of RNA into cDNA was carried out using the Quantitect® inverse transcription kit (QIAGEN) following the manufacturer's recommendations. […]
The expression of selected transcripts was then analyzed by quantitative PCR using a LightCycler 480 Real-Time PCR System 384-well plate system (Roche) using the SYBR® Green incorporation technique (Roche). […]

Q: With `CC(C)CCCCCCCCC[C@@H]1CC(=O)N[C@@H](CCC(=O)O)C(=O)N[C@@H](CC(C)C)C(=O)N[C@H](CC(C)C)C(=O)N[C@@H](C(C)C)C(=O)N[C@@H](CC(=O)O)C(=O)N[C@H](CC(C)C)C(=O)N[C@@H](CC(C)C)C(=O)O1` [Sodium Surfactin] (EL[dL]VD[dL]L; linker N-C via X1) as the compound, how does the “Expression of genes associated with moisturization in keratinocytes” value read?
A: Its value is “lower expression”.
